Measurements published in PubChem BioAssay (NCI).
Where “and” joins values, the source holds several entries; their conditions need not be identical. Equal entries are not always repeated.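 Growth conditions: 96-well plates. Treatment: test compound, 48 hours, 5 concentrations. Analysis: linear interpolation between bracketing concentrations; unreached endpoints set to highest concentration. GI50 = concentration required for 50% inhibition of growth. TGI is the concentration that stops growth completely.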

Tests used:
Experiment in all cases: NCI-60 cell line screen, 48 h
NCI-H522 lung = system: NCI-H522 lung
SR leukemia = system: SR leukemia
SK-MEL-28 melanoma = system: SK-MEL-28 melanoma
IGROV1 ovarian = system: IGROV1 ovarian
OVCAR-4 ovarian = system: OVCAR-4 ovarian
DU-145 prostate = system: DU-145 prostate
NCI-H460 lung = system: NCI-H460 lung
HL-60(TB) leukemia = system: HL-60(TB) leukemia
MDA-N = system: MDA-N
NCI-H226 lung = system: NCI-H226 lung

Row | Structure (SMILES) | TGI (NCI-H522 lung) | TGI (SR leukemia) [µM] | TGI (SK-MEL-28 melanoma) | TGI (IGROV1 ovarian) | TGI (OVCAR-4 ovarian) [µM] | TGI (DU-145 prostate) [µM] | TGI (NCI-H460 lung) | TGI (HL-60(TB) leukemia) [µM] | TGI (MDA-N) [µM] | TGI (NCI-H226 lung) | GI50 (NCI-H522 lung) [µM] | GI50 (SK-MEL-28 melanoma) [µM] | GI50 (IGROV1 ovarian) [µM] | GI50 (OVCAR-4 ovarian) [µM] | GI50 (NCI-H460 lung) [µM] | GI50 (HL-60(TB) leukemia) [µM] | GI50 (NCI-H226 lung) [µM]
1 | Cc1ccc(S(=O)(=O)N/N=C2/CCC(C(C)(C)C)CC2Br)cc1 (stereo not given) | 35.3 µM | > 100 | 54.5 µM | > 100 µM | 33.6 | > 100 | > 100 µM | > 100 | > 100 | 34 µM | – | – | – | – | – | – | –
2 | COC12C=CC(C=C1C#N)CC2 (stereo not given) (tested in a mixture with another compound) | > 100 µM | > 100 | > 100 µM | > 100 µM | > 100 | > 100 | > 100 µM | > 100 | > 100 | > 100 µM | – | – | – | – | – | – | –
3 | Cc1cc(N(CCC#N)CCC#N)ccc1/C=C1\SC(=S)NC1=O | > 100 µM | > 100 | > 100 µM | > 100 µM | > 100 | > 100 | > 100 µM | > 100 | > 100 | > 100 µM | – | – | – | – | – | – | –
4 | CCN(CC)CCOC(=O)Cc1cccc2c(=O)cc(-c3ccccc3)oc12 | 62.5 µM and > 154 µM | 37.9 | 62.5 µM and > 237 µM | 62.5 µM and > 216 µM | 62.5 | 54.6 | 62.5 µM and > 111 µM | 44.6 | 62.5 | 62.5 µM and > 129 µM | 72.8 | 115 | 82.9 | 18.3 | 36.4 | 3.86 | 50.7
5 | Cc1cc2oc(C)c(S(=O)(=O)NC(=O)Nc3ccc(Cl)cc3)c(=O)c2c(=O)o1 | > 100 µM | > 100 | > 100 µM | > 100 µM | > 100 | > 100 | > 100 µM | > 100 | > 100 | > 100 µM | – | – | – | – | – | – | –
6 | COc1c2ccsc2c(OC)c2ccsc12 | > 100 µM | > 100 | > 100 µM | > 100 µM | > 100 | > 100 | > 100 µM | > 100 | > 100 | > 100 µM | – | – | – | – | – | – | –
7 | CCOC(=O)C(NC(=O)CC)(Nc1ccc(F)c(Cl)c1)C(F)(F)F (stereo not given) | > 100 µM | > 100 | > 100 µM | > 100 µM | > 100 | > 100 | > 100 µM | > 100 | > 100 | > 100 µM | – | – | – | – | – | – | –
8 | Cc1ccc2c(C(=O)c3c(C)n(CCN4CCOCC4)c4ccccc34)cccc2c1 | 29.3 µM | > 100 | > 100 µM | > 100 µM | 61.1 | 94.3 | 89.3 µM | 10.4 | 84.8 | 19.9 µM | – | – | – | – | – | – | –
9 | COC(=O)c1cccc(OC)c1C#Cc1c(OC)cccc1OC | > 100 µM | > 100 | > 100 µM | > 100 µM | > 100 | > 100 | > 100 µM | > 100 | > 100 | > 100 µM | – | – | – | – | – | – | –
10 | Cc1cc(N2CCCC2)c([N+](=O)[O-])cc1[N+](=O)[O-] | > 100 µM | > 100 | > 100 µM | > 100 µM | > 100 | > 100 | > 100 µM | > 100 | > 100 | > 100 µM | – | – | – | – | – | – | –
11 | COC1(c2cccs2)c2ccccc2C(OC)(c2cccs2)c2ccccc21 (stereo not given) | > 100 µM | > 100 | > 100 µM | > 100 µM | > 100 | > 100 | > 100 µM | > 100 | > 100 | > 100 µM | – | – | – | – | – | – | –
12 | COC(=O)c1ccccc1C1=C([N+](=O)[O-])C(c2ccccc2)C(C#N)=C(N)O1 (stereo not given) | 30.8 µM | > 100 | > 100 µM | > 100 µM | – | > 100 | > 100 µM | > 100 | > 100 | > 100 µM | – | – | – | – | – | – | –
13 | O=[N+]([O-])c1ccc(O)c(/C=N/c2nc(-c3ccccc3)cs2)c1 | 38.1 µM | 21.7 | > 100 µM | 74.3 µM | > 100 | > 87.1 | > 86.7 µM | > 100 | > 83.6 | 85.3 µM | – | – | – | – | – | – | –
14 | COC(=O)C1=CON2C3CC4CC(C3)CC(C4)C12C (stereo not given) | > 100 µM | > 100 | > 100 µM | > 100 µM | > 100 | > 100 | > 100 µM | > 100 | > 100 | > 100 µM | – | – | – | – | – | – | –
15 | CN(C)CCNC(=O)c1ccc(Cl)c2cc3ccccc3nc12 | 2.07 µM | 3.03 | 4.03 µM | 11.3 µM | 3.34 | 6.2 | 3.9 µM | 3.98 | 2.21 | 4.7 µM | – | – | – | – | – | – | –
16 | CN(C)CC1CCC/C(=C\c2ccc(OC(=O)/C=C/c3ccc(Cl)c(Cl)c3)cc2)C1=O (stereo not given) | 8.28 µM | 3.54 | 28.1 µM | 3.15 µM | > 60.3 | > 93.3 | 23.2 µM | 3.45 | 12.1 | 4.56 µM | – | – | – | – | – | – | –
17 | O=C1CS(=O)(=O)C(c2cccc(Oc3ccccc3)c2)N1c1ccccc1 (stereo not given) | 47.9 µM | 57 | 85.4 µM | – | > 100 | > 100 | 38.4 µM | > 100 | 44.2 | 45.6 µM | – | – | – | – | – | – | –
18 | COc1ccc(N=C2C(=Nc3ccc(OC)cc3)N(c3ccc(N(C)C)cc3)C(=S)N2c2ccc(OC)cc2)cc1 | > 100 µM | > 100 | > 100 µM | > 100 µM | > 100 | > 100 | > 100 µM | > 100 | > 100 | > 100 µM | – | – | – | – | – | – | –
19 | CCCc1nnc2sc(COc3cc(Cl)c(OCc4nn5c(CCC)nnc5s4)cc3Cl)nn12 | > 100 µM | 1.77 | > 100 µM | > 100 µM | 80.5 | > 100 | > 100 µM | 80.5 | > 100 | > 100 µM | – | – | – | – | – | – | –
20 | CCOC(=O)C(=CN1CCNC1=S)C(=O)OCC | > 100 µM | > 100 | > 100 µM | > 100 µM | > 100 | > 100 | > 100 µM | > 100 | > 100 | > 100 µM | – | – | – | – | – | – | –
21 | O=[N+]([O-])c1cccc(Cl)c1Oc1ccc(S(=O)(=O)/N=C(\NO)Nc2ccc(Cl)cc2)cc1 | 20.2 µM | 21.1 | 34.7 µM | 35.6 µM | 26.3 | 30 | 29.3 µM | 16.5 | 26 | 44.4 µM | – | – | – | – | – | – | –
22 | COc1ccc([C@]23CCN4COC[C@@H]([C@H]42)C2(CC3)OCC(C)(C)CO2)cc1OC | > 100 µM | > 100 | > 100 µM | > 100 µM | > 100 | > 100 | > 100 µM | > 100 | > 100 | > 100 µM | – | – | – | – | – | – | –
23 | Cc1c(O)c(OC2OC(CO)C(O)C(O)C2O)cc2c1C=C[C@@H]1[C@@]2(C)C(=O)C[C@]2(C)[C@@H]([C@@](C)(O)C(=O)CCC(C)(C)O)[C@H](O)C[C@@]12C (stereo not given in full) | 67.2 µM | > 100 | 43.1 µM | 44.3 µM | > 100 | 56.6 | 48 µM | > 100 | 77.5 | 62.7 µM | – | – | – | – | – | – | –
24 | O=C(C(Cl)=C(N1CCCCC1)N1CCCCC1)C(Cl)Cl | > 100 µM | > 100 | > 100 µM | > 100 µM | > 100 | > 100 | > 100 µM | > 100 | > 100 | > 100 µM | – | – | – | – | – | – | –
25 | COCC12CCC(OC)C34C5CC6(O)C(OC)CC(OC(C)=O)(C5C6OC(=O)c5ccccc5)C(C(OC)C13)C4N(C)C2 (stereo not given) | > 100 µM | > 100 | > 100 µM | > 100 µM | > 100 | > 100 | > 100 µM | > 100 | > 100 | > 100 µM | – | – | – | – | – | – | –
26 | CC12ON(P(=O)(c3ccccc3)c3ccccc3)C(C)(c3ccccc31)c1ccccc12 | > 100 µM | > 100 | > 100 µM | > 100 µM | > 100 | > 100 | > 100 µM | > 100 | > 100 | > 100 µM | – | – | – | – | – | – | –
27 | CC(=O)N(C(C)=O)n1c(Cc2ccc(C)cc2)nn(C(C)=O)c1=O | > 100 µM | > 100 | > 100 µM | > 100 µM | > 100 | > 100 | > 100 µM | > 100 | > 100 | > 100 µM | – | – | – | – | – | – | –
28 | N=c1oc2ccccc2cc1-c1nc2ccccc2c(=O)[nH]1 | > 100 µM | > 100 | > 100 µM | > 100 µM | > 100 | > 100 | > 100 µM | > 100 | > 100 | > 100 µM | – | – | – | – | – | – | –
29 | CNC(=S)NNc1ncnc2c1ncn2-c1ccc(C)cc1 | > 100 µM | > 100 | > 100 µM | > 100 µM | > 100 | > 100 | > 100 µM | > 100 | > 100 | > 100 µM | – | – | – | – | – | – | –
